Measured values from patent US20160038651A1, “COMPOUNDS AND COMPOSITIONS FOR DRUG RELEASE” (INTERFACE BIOLOGICS, INC., priority 2013, published 2016).
Converted amounts (≈) assume the structure as drawn. Where two headings read alike, the source gives them in different places.

Columns and labels:
[1] = tested on: S. aureus (ATCC 25923); assay: MIC & MBC determination, standard broth microdilution method; assay type: cell-based; settings: for antimicrobial activity: broth microdilution, up to the highest concentration tested; for effect of the combination on the activity of CHX-A: tested in combination with CHX-A
Source text: The antimicrobial efficacy of Compound 2 and drug released from Compound 2 was investigated using a standard broth microdilution method. The minimum inhibitory concentration (MIC) and minimum bactericidal concentration (MBC) were investigated for Compound 2, drug released from Compound 2, triethylene glycol (TEG), Ciprofloxacin hydrochloride (Cipro®HCl), chlorhexidine diacetate (CHX-A), and Compound 2+CHX-A. The MIC is defined as the lowest concentration of an antimicrobial agent that will inhibit visible growth of a microorganism after overnight incubation. The MBC is defined as the lowest concentration of an antimicrobial agent required to kill 99.9% of a microorganism population. This study was carried out using two gram positive bacteria, E. faecalis (ATCC 29212) and S. aureus (ATCC 25923), and two gram negative bacteria, E. coli (ATCC 25922) and P. aeruginosa (ATCC 27853). The test samples were prepared using 2-fold dilutions per well and covered a concentration range at least 2 dilutions above and 2 dilutions below literature MIC values for the microorganisms tested.
The antimicrobial efficacy of Compound 3 and drug released from Compound 3 investigated using a standard broth microdilution method. The MIC and MBC were investigated for Compound 3, drug released from Compound 3, TEG, Cipro®HCl, CHX-A, and Compound 3+CHX-A. This study was carried out using two gram positive bacteria, E. faecalis (ATCC 29212) and S. aureus (ATCC 25923), and two gram negative bacteria, E. coli (ATCC 25922) and P. aeruginosa (ATCC 27853). The test samples were prepared using 2-fold dilutions per well and covered a concentration range at least 2 dilutions above and 2 dilutions below literature MIC values for the microorganisms tested.

[2] = tested on: mice; assay: Acute Systemic Toxicity following ISO 10993-11; assay type: in vivo; settings: single injection 50 mL/kg per mouse, observed to 72 h
Protocol: A single injection dose of 50 mL/kg per mouse (˜1 mL) was administered to 5 mice per test sample.

[3] = tested on: New Zealand rabbits; assay: Intracutaneous Reactivity, ISO 10993-10: 2010; assay type: in vivo; settings: 0.2 mL intracutaneous injections, scored after 24, 48, 72 h
Protocol: (§1) Compound 2 was dissolved in PBS (9.2×10 mg/mL) and tested for Intracutaneous Reactivity in accordance with ISO 10993-10: 2010 Standard, Biological Evaluation of Medical Devices, Part 10: Tests for Irritation and Skin Sensitization, Pages 11-14. Each rabbit received five sequential 0.2 mL intracutaneous injections along either side of the dorsal mid-line with the test article on one side and the control on the other. Three New Zealand rabbits were used per sample and control. The injection sites were observed and scored for erythema (redness) and edema (swelling) after 24, 48, and 72 h on a scale of 1 to 4.
as §1, with “Compound 3” for “Compound 2”, “PBS (5.4×10^−2” for “PBS (9.2×10”

[4] = Drug release in solution (PBS pH 7.4, 37° C., RP-HPLC); assay type: physicochemical; settings: 0.1 mg/ml in PBS pH 7.4, 37° C.
Protocol: Compound 2 was dissolved in PBS (pH 7.4) at 0.1 mg/ml and placed in incubator at 37° C. At each time point (0, 1, 3, 7, 14, 21, & 28 days), solution was removed from incubator and analyzed for the drug by RP-HPLC using established protocols (FIG. 6). […] The release profile of compound 2 was also evaluated in a device prototype assembly using bovine serum, blood (porcine) or a gel matrix.
Compound 3 was dissolved in PBS (pH 7.4) at 0.1 mg/ml and placed in incubator at 37° C. At each time point (0, 1, 3, 7, 14, 21, & 28 days), solution was removed from incubator and analyzed for drug by RP-HPLC using established protocols.

[5] = Accelerated drug release in acidic, basic or neutral conditions (RP-HPLC); assay type: physicochemical; settings: 37° C.
Protocol: Compound 2 was prepared at 10 mg/ml in 0.1 N HCl (final pH ˜4), 0.1 N NaOH (final pH ˜10), and PBS (final pH ˜7). Samples were incubated at 37° C. in acidic, basic, or neutral conditions. At each time point, the drug concentration was quantified by RP-HPLC.

[6] = tested on: S. aureus (ATCC 25923); settings: cited from earlier work

Row | Molecule | MBC Experimental ([1]; S. aureus, Table 5) [µg/mL] | MIC Experimental ([1]; S. aureus, Table 5, in µg/mL) | antimicrobial activity [1] | MBC Experimental ([1]; S. aureus, Table 4) [µg/mL] | MIC Experimental ([1]; S. aureus, Table 4) [µg/mL] | effect of the combination on the activity of CHX-A [1] | MBC Literature ([6]; Table 4) [µg/mL] | MIC Literature ([6]; Table 4) [µg/mL] | MBC Literature ([6]; Table 5) [µg/mL] | MIC Literature ([6]; Table 5) [µg/mL] | other results
1 | OCCOCCOCCO [TEG, triethylene glycol] | >100 | >100 | No antimicrobial activity | – | – | – | – | – | – | – | MBC ([1]; Staphylococcus aureus, ATCC25923, S. aureus, Table 4, read-out: MBC Experimental): > 100 µg/mL; MIC ([1]; Staphylococcus aureus, ATCC25923, S. aureus, Table 4, read-out: MIC Experimental): > 100 µg/mL
2 | O=C(OCCOCCOCCOC(=O)c1cn(C2CC2)c2cc(N3CCNCC3)c(F)cc2c1=O)c1cn(C2CC2)c2cc(N3CCNCC3)c(F)cc2c1=O [Compound 2] | – | – | did not show any antimicrobial activity | >78 | >78 | did not affect the activity of CHX-A | – | – | – | – | signs of toxicity (Acute Systemic Toxicity) ([2]; in PBS 4×10^−5-9.7×10^−1 mg/mL, higher dosage): no signs of toxicity; irritation (erythema and edema, Intracutaneous Reactivity) ([3]; in PBS 9.2×10 mg/mL): non-irritant; total drug released ([4]; after 28 days): ~8%; drug release ([5]; 10 mg/ml in 0.1 N HCl (final pH ~4), after 7 days): ~71%; drug release ([5]; 10 mg/ml in 0.1 N NaOH (final pH ~10), in less than 1 day): 100%; drug release ([5]; 10 mg/ml in PBS (final pH ~7), after 7 days): ~2%
3 | CC(=O)O.CC(=O)O.NC(=N\CCCCCC/N=C(N)/N=C(\N)Nc1ccc(Cl)cc1)/N=C(\N)Nc1ccc(Cl)cc1 [CHX-A, chlorhexidine diacetate] | 1 to 4 | 1 | – | 1 to 4 | 1 | – | 3.9 | 0.9 | 3.9 | 0.9 | –
4 | O=C(OCCOCCOCCO)c1cn(C2CC2)c2cc(N3CCNCC3)c(F)cc2c1=O [Compound 3] | >55.5 | >55.5 | did not show any antimicrobial activity | – | – | did not affect the activity of CHX-A | – | – | – | – | signs of toxicity (Acute Systemic Toxicity) ([2]; in PBS 8×10^−4-8×10^−2 mg/mL, all concentrations): no signs of toxicity; irritation (erythema and edema, Intracutaneous Reactivity) ([3]; in PBS 5.4×10^−2 mg/mL): non-irritant; drug concentration with time (drug release) ([4]; out to at least 28 days): linear increase
5 | O=C(O)c1cn(C2CC2)c2cc(N3CCNCC3)c(F)cc2c1=O [Cipro Released from Compound 3] | 1 (≈ 3.02 µM) | 0.5 | antimicrobial activity consistent with both the Cipro®HCl controls and literature values | – | – | – | – | – | – | – | –
6 | Ciprofloxacin hydrochloride [Cipro*HCl] | 0.5 to 1 | 0.25-0.5 | – | 0.5 to 1 | 0.25 to 0.5 | – | 0.9 | 0.5 | 0.9 | 0.5 | –
